Results published in publication PMC8901636, “Preclinical studies of Flonoltinib Maleate, a novel JAK2/FLT3 inhibitor, in treatment of JAK2^V617F-induced myeloproliferative neoplasms” (Blood Cancer Journal, 2022).
Read-outs that look alike come from different tables or passages of the source.

How the values were obtained:
JAK2/JAK2 signaling = assay: Cytokine-stimulated cell-based assay, GM-CSF-induced p-STAT5; details: western blotting
JAK1/JAK2 = assay: Cytokine-stimulated cell-based assay, G-CSF-induced p-STAT3 in HEL cells; details: Homo sapiens
From the text: To further determine the selectivity of FM to inhibit different JAK isotypes in cell lines, we performed a series of cytokine-stimulated cell-based assays and assessed the signal transduction of JAK subtypes.
(A) Inhibition of cytokine induced JAK auto-phosphorylation by FM in HEL cell lines. Raw data about HEL (B) and Ba/F3-JAK2^V617F (C) cells were supplemented with different concentrations of FM for cell cycle analysis. […] (F) p-FLT3, p-STAT5, and p-ERK in Molm-13 cell line were also assessed after 3 hours exposure with increasing concentrations of FM.

Ba/F3-JAK2^WT = assay: MTT assay for cell proliferation; format: cell-based, Murine; details: Mus musculus, 72 h, read-out: IC50(μM) ± SD, tumor cell proliferation
Method: (§4) For in vitro inhibition assays, cells were seeded in 96-well culture plates with a density of 15,000–20,000 cells/well after the cells reached 70–90% confluence. […] MTT (3-(4, 5-dimethylthiazol-2-yl)-2, 5-diphenyltetrazolium bromide) (Cat. No. 1334GR001; BioFroxx) assay was conducted in order to examine viability. The IC50 values were fitted using GraphPad Prism 7.0.

Ba/F3-EPOR-JAK2^V617F = assay: MTT assay for cell proliferation; format: cell-based, Murine; details: Mus musculus
Method: as §4

MV-4-11 = assay: MTT assay for cell proliferation; format: cell-based; details: Homo sapiens, MV4-11, 72 h, read-out: IC50(μM) ± SD, tumor cell proliferation
Method: as §4

Ba/F3-FLT3-ITD^F691 = assay: MTT assay for cell proliferation; format: cell-based, Murine; details: Mus musculus, 72 h, read-out: IC50(μM) ± SD, tumor cell proliferation
Method: as §4

[1] = tested on: FLT3 mutant tumor cell lines; assay: MTT assay for cell proliferation, summary of panel; format: cell-based; details: summary of Table S7
Method: (§1) For in vitro inhibition assays, cells were seeded in 96-well culture plates with a density of 15,000–20,000 cells/well after the cells reached 70–90% confluence. After overnight incubation, the cells received a supplement of serial concentrations of FM and underwent 72 h incubation at 37 °C under 5% CO2. MTT (3-(4, 5-dimethylthiazol-2-yl)-2, 5-diphenyltetrazolium bromide) (Cat. No. 1334GR001; BioFroxx) assay was conducted in order to examine viability. The IC50 values were fitted using GraphPad Prism 7.0.

[2] = tested on: JAK2^V617F mutant cell lines; assay: MTT assay for cell proliferation, summary of panel; format: cell-based; details: summary of Table S7; read-out: anti-proliferative IC50 on JAK2^V617F mutant cell lines
Method: as §1

[3] = PK and tissue distribution after single oral administration in Ba/F3-EPOR-JAK2^V617F tumor-bearing mice; format: in vivo; details: for Kp: spleen and plasma, po
Bioavailability [4] = details: rat, in vivo; rats; data not shown
Bioavailability [5] = details: dog, in vivo; dogs; data not shown
CD34^+ cells = assay: CD34+ cells in peripheral blood of normal mice; format: in vivo; details: normal BALB/c mice; 30 mg/kg p.o. twice a day; Day 0-21
Method: (§2) To further understand the effect of FM on normal mice and normal human CD34^+ cells, we conducted a further analysis on CD34^+ cells. For normal mice, we measured the proportion of CD34^+ in the peripheral blood of BALB/c mice on Day 0, and then mice were treated with FM 30 mg/kg p.o. twice a day. […] To investigate the effect of FM on normal human CD34^+ cells, we collected mononuclear cells of PB acquired from healthy donors. […] Therefore, in the future phase I clinical trials, we should examine the myelosuppressive effects of FM in patients with MPN.
(§3) (A) Normal BALB/c mice were treated with vehicle and FM 30mg/kg p.o. twice a day. FACS analysis of the percentage of CD34^+ cells on Day 0, 7, 14 and 21 (n = 7). (B) Mononuclear cells were isolated from the PB of healthy donors and CD34^+ cells were analyzed after incubated with FM after 48h.

[6] = tested on: normal human CD34^+ cells; assay: Normal human CD34+ cells from PB mononuclear cells of healthy donors; format: cell-based; details: 48 h
Method: as §2, §3

FLT3 = FLT3 (Homo sapiens, UniProt P36888); assay: In vitro kinase assay
TYK2 = TYK2 (Homo sapiens, UniProt P29597); assay: In vitro kinase assay
[7] = tested on: Ba/F3-EPOR-JAK2^V617F cells; assay: Ba/F3-EPOR-JAK2^V617F malignancy mouse model; details: for spleen suppression rate: 16 days; for median survival time: vehicle 19 days
[8] = BALB/c nude, mouse, brain, oral, 30 mg/kg, single, read-out: FM concentration, Brain
[9] = BALB/c nude, mouse, heart, oral, 30 mg/kg, single, read-out: FM concentration, Heart
[10] = BALB/c nude, mouse, intestine, oral, 30 mg/kg, single, read-out: FM concentration, Intestine
[11] = BALB/c nude, mouse, kidney, oral, 30 mg/kg, single, read-out: FM concentration, Kidney
[12] = BALB/c nude, mouse, liver, oral, 30 mg/kg, single, read-out: FM concentration, Liver
[13] = BALB/c nude, mouse, lung, oral, 30 mg/kg, single, read-out: FM concentration, Lung
[14] = BALB/c nude, mouse, muscle, oral, 30 mg/kg, single, read-out: FM concentration, Muscle
[15] = BALB/c nude, mouse, plasma, oral, 30 mg/kg, single, read-out: FM concentration, Plasma
[16] = BALB/c nude, mouse, spleen, oral, 30 mg/kg, single, read-out: FM concentration, Spleen
[17] = BALB/c nude, mouse, stomach, oral, 30 mg/kg, single, read-out: FM concentration, Stomach
[18] = BALB/c nude, mouse, Plasma, single oral 30 mg/kg
[19] = BALB/c nude, mouse, spleen, single oral 30 mg/kg

Chain of FLT3 (P36888 27-993): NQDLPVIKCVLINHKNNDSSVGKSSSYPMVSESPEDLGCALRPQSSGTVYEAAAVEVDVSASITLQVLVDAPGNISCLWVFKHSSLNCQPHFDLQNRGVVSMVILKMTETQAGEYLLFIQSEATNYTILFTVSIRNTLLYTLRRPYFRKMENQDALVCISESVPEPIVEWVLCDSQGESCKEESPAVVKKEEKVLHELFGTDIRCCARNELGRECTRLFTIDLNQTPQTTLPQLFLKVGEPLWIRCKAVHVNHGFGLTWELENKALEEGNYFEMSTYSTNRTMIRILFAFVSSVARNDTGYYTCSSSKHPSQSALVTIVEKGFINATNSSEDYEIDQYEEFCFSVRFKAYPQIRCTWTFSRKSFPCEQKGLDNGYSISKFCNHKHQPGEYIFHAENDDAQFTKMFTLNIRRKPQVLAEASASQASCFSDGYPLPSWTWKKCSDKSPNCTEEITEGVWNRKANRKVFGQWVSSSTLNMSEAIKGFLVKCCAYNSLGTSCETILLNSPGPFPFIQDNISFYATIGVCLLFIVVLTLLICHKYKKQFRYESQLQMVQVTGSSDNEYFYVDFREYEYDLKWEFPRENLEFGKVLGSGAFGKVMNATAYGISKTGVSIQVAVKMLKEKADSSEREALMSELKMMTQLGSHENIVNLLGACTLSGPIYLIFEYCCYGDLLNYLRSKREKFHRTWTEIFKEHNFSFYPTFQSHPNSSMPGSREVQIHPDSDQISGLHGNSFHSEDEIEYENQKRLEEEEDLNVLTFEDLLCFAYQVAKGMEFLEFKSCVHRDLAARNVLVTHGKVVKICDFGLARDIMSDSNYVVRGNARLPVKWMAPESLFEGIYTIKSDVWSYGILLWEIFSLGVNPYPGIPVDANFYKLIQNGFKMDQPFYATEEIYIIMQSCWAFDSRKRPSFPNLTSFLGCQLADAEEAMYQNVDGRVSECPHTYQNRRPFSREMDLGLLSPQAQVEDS
Chain of TYK2 (P29597 whole entry): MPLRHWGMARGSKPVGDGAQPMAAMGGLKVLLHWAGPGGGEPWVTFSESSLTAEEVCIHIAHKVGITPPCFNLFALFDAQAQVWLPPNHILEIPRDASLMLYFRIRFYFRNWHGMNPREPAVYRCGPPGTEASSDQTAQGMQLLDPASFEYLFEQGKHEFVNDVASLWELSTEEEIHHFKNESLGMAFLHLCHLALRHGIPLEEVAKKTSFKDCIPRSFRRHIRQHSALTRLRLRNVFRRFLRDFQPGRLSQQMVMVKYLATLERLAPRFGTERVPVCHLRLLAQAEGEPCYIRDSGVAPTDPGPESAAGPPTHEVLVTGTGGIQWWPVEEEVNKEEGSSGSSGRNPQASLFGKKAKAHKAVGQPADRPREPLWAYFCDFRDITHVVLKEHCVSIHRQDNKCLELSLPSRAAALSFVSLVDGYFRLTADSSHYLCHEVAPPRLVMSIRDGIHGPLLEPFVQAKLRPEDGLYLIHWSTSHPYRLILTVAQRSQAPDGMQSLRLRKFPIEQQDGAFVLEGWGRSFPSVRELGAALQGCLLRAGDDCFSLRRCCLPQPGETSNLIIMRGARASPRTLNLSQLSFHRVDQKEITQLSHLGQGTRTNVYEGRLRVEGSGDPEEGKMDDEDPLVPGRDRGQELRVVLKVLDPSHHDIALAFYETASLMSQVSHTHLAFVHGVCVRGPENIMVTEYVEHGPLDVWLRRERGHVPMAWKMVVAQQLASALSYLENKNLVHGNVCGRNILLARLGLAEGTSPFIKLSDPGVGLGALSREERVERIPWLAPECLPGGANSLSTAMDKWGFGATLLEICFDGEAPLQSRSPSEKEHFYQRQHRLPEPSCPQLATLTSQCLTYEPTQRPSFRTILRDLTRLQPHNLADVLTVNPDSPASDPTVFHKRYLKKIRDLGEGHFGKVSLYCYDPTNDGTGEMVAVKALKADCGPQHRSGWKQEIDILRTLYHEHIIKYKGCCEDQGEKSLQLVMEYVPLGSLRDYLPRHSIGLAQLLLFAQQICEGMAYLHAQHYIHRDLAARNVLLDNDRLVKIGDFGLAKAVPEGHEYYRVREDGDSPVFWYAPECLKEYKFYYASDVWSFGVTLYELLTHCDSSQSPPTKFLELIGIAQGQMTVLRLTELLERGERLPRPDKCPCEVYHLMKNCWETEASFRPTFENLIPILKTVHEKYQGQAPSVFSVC

Compound: Cc1cnc(Nc2ccc(N3CCC(N(C)CCO)CC3)c(F)c2)nc1-c1cnn(C(C)C)c1 [FM, 2-((1-(2-fluoro-4-((4-(1-isopropyl-1H-pyrazol-4-yl)-5-methylpyrimidin-2-yl)amino)phenyl)piperidin-4-yl)(methyl)amino)ethan-1-ol]
- IC50 (JAK2/JAK2 signaling): 120 nM
- IC50 (JAK1/JAK2): 460 nM
- IC50 (Ba/F3-JAK2^WT): 0.39 ± 0.2 µM
- IC50 (Ba/F3-EPOR-JAK2^V617F; 72 h, read-out: IC50(μM) ± SD, tumor cell proliferation): 0.78 ± 0.21 µM
- IC50 (Ba/F3-EPOR-JAK2^V617F; as quoted in PK/PD text, read-out: IC50 value of Ba/F3-EPOR-JAK2^V617F cells in vitro): 0.79 ± 0.01 µM
- IC50 (MV-4-11): 0.01 ± 0.01 µM
- IC50 (Ba/F3-FLT3-ITD^F691): 0.15 ± 0.02 µM
- IC50 [1]: < 100 nM
- IC50 [2]: < 500 nM
- drug concentration in the spleen ([3]; 8 h after single oral 30 mg/kg, by calculation): 2416 ± 1657 nmol/kg
- concentration at 0.5 h [3, 8]: 354 ± 77.1 ng/g
- concentration at 2 h [3, 8]: 309 ± 40.5 ng/g
- concentration at 4 h [3, 8]: 157 ± 58.3 ng/g
- concentration at 8 h ([3]; BALB/c nude, mouse, brain, oral, 30 mg/kg, single, 8 h, read-out: FM concentration, Brain): 38.4 ± 28.5 ng/g
- concentration at 0.5 h [3, 9]: 3390 ± 184 ng/g
- concentration at 2 h [3, 9]: 1650 ± 381 ng/g
- concentration at 4 h [3, 9]: 864 ± 418 ng/g
- concentration at 8 h ([3]; BALB/c nude, mouse, heart, oral, 30 mg/kg, single, 8 h, read-out: FM concentration, Heart): 199 ± 145 ng/g
- concentration at 0.5 h [3, 10]: 14900 ± 11400 ng/g
- concentration at 2 h [3, 10]: 6250 ± 3230 ng/g
- concentration at 4 h [3, 10]: 8490 ± 2240 ng/g
- concentration at 8 h ([3]; BALB/c nude, mouse, intestine, oral, 30 mg/kg, single, 8 h, read-out: FM concentration, Intestine): 4360 ± 4050 ng/g
- concentration at 0.5 h [3, 11]: 12100 ± 1260 ng/g
- concentration at 2 h [3, 11]: 6220 ± 855 ng/g
- concentration at 4 h [3, 11]: 2410 ± 1010 ng/g
- concentration at 8 h ([3]; BALB/c nude, mouse, kidney, oral, 30 mg/kg, single, 8 h, read-out: FM concentration, Kidney): 1050 ± 767 ng/g
- concentration at 0.5 h [3, 12]: 12800 ± 3700 ng/g
- concentration at 2 h [3, 12]: 6530 ± 2920 ng/g
- concentration at 4 h [3, 12]: 3820 ± 1480 ng/g
- concentration at 8 h ([3]; BALB/c nude, mouse, liver, oral, 30 mg/kg, single, 8 h, read-out: FM concentration, Liver): 845 ± 662 ng/g
- concentration at 0.5 h [3, 13]: 11600 ± 2960 ng/g
- concentration at 2 h [3, 13]: 3820 ± 739 ng/g
- concentration at 8 h ([3]; BALB/c nude, mouse, lung, oral, 30 mg/kg, single, 8 h, read-out: FM concentration, Lung): 603 ± 481 ng/g
- concentration at 0.5 h [3, 14]: 633 ± 619 ng/g
- concentration at 2 h [3, 14]: 217 ± 116 ng/g
- concentration at 4 h [3, 14]: 152 ± 73.9 ng/g
- concentration at 8 h ([3]; BALB/c nude, mouse, muscle, oral, 30 mg/kg, single, 8 h, read-out: FM concentration, Muscle): 43.1 ± 42 ng/g
- concentration at 0.25 h [3, 15]: 653 ± 108 ng/mL
- concentration at 0.5 h [3, 15]: 857 ± 74.5 ng/mL
- concentration at 1 h [3, 15]: 922 ± 302 ng/mL
- concentration at 2 h [3, 15]: 458 ± 88.2 ng/mL
- concentration at 4 h [3, 15]: 248 ± 80.8 ng/mL
- concentration at 8 h ([3]; BALB/c nude, mouse, plasma, oral, 30 mg/kg, single, 8 h, read-out: FM concentration, Plasma): 59.9 ± 50 ng/mL
- concentration at 12 h ([3]; BALB/c nude, mouse, plasma, oral, 30 mg/kg, single, 12 h, read-out: FM concentration, Plasma): 61.4 ± 64.3 ng/mL
- Kp ([3]; BALB/c nude, mouse, 30 mg/kg, AUC(0-24h) of spleen higher than that of plasma, single oral 30 mg/kg): 15.3
- Kp ([3]; BALB/c nude, mouse, 30 mg/kg, single oral 30 mg/kg, read-out: Cmax of spleen higher than that of plasma): 11.7
- concentration at 0.25 h [3, 16]: 5630 ± 710 ng/g
- concentration at 0.5 h [3, 16]: 10400 ± 2660 ng/g
- concentration at 1 h [3, 16]: 9930 ± 3970 ng/g
- concentration at 2 h [3, 16]: 8530 ± 1510 ng/g
- concentration at 4 h [3, 16]: 3810 ± 1880 ng/g
- concentration at 8 h ([3]; BALB/c nude, mouse, spleen, oral, 30 mg/kg, single, 8 h, read-out: FM concentration, Spleen): 1410 ± 968 ng/g
- concentration at 12 h ([3]; BALB/c nude, mouse, spleen, oral, 30 mg/kg, single, 12 h, read-out: FM concentration, Spleen): 358 ± 228 ng/g
- concentration at 24 h ([3]; BALB/c nude, mouse, spleen, oral, 30 mg/kg, single, 24 h, read-out: FM concentration, Spleen): 32.6 ± 13.3 ng/g
- concentration at 8 h ([3]; BALB/c nude, mouse, spleen, 8 h after single oral 30 mg/kg, converted, read-out: drug concentration in the spleen): ~2420 nM
- concentration at 12 h ([3]; BALB/c nude, mouse, spleen, 12 h after single oral 30 mg/kg, converted, read-out: concentration of FM in spleen): ~614 nM
- concentration at 0.5 h [3, 17]: 30300 ± 18400 ng/g
- concentration at 2 h [3, 17]: 30500 ± 29000 ng/g
- concentration at 4 h [3, 17]: 17700 ± 10900 ng/g
- concentration at 8 h ([3]; BALB/c nude, mouse, stomach, oral, 30 mg/kg, single, 8 h, read-out: FM concentration, Stomach): 6840 ± 10500 ng/g
- AUC(0-t) [3, 18]: 2990 ± 558 ng·h/mL
- Cmax [3, 18]: 1030 ± 174 ng/mL
- half-life [3, 18]: 2.31 ± 0.79 h
- Cmax [3, 19]: 12000 ± 3470 ng/g
- half-life [3, 19]: 2.71 ± 0.51 h
- Cl ([3]; Plasma, single oral 30 mg/kg): 168.7 ± 36.2 mL/min/kg
- Vdss ([3]; Plasma, single oral 30 mg/kg): 32.84 ± 10.12 L/kg
- bioavailability (Bioavailability [4]): ~60%
- bioavailability (Bioavailability [5]): ~60%
- CD34^+ cells in peripheral blood (CD34^+ cells): significantly inhibited
- effect on normal human CD34^+ cells [6]: general inhibitory effect
- IC50 (FLT3): 15 nM
- IC50 (TYK2): 65 nM
- spleen suppression rate ([7]; 15 mg/kg bid p.o.): -35.67%
- median survival time ([7]; 15 mg/kg bid p.o.): 22 days
- spleen suppression rate ([7]; 30 mg/kg bid p.o.): -79.79%
- median survival time ([7]; 30 mg/kg bid p.o.): 25 days
- spleen suppression rate ([7]; 45 mg/kg bid p.o.): -101.08%
- median survival time ([7]; 45 mg/kg bid p.o.): 25 days
- visceral toxicity, tissues of treated mice ([7]; data not shown): did not cause obvious visceral toxicity
